Assay results taken from patent US5874412A, “Bis-anthracyclines with high activity against doxorubicin resistant tumors” (priority 1997, dated 1999).
“And” between values parts separate entries of the source, which are not always exact repeats. Equal entries are not always repeated. “Also recorded” adds a separate entry of the source. Structures can show the parent of a compound that is named as a salt. Where two headings read alike, the source gives them in different places.

Experiments:
[1] = system: DNA; assay: Viscosity studies (binding mode, relative viscosity of DNA); details: for binding mode from viscosity: in words, slope compared with daunorubicin; for slope of cubed root of the relative viscosity vs bound drug per DNA base pair: linear least squares fits, FIG. 20
Excerpt: FIG. 20. Viscosity studies of WP631-DNA interaction. The cubed root of the relative viscosity (.eta./.eta.0) is shown as a function of the ratio of bound drug per DNA base pair: solid circles, ethidium bromide; open diamonds, daunorubicin; solid diamonds, WP63 1.
The bisanthracyclines may be tested as effective intercalating agents using viscosity assays as described by Suh and Chaires (1995). Such assays are well known to those of skill in the art. In theory, for monointercalation,plots of the cubed root of the relative viscosity ((.eta./.eta.0)^1/3) versus the binding ratio (bound drug/DNA bp) ought to have a slope of 1.0. For bisintercalators, the slope is expected to be twice that observed for monointercalators, an expectation that has been verified for a variety of bisintercalating compounds (Wakelin, 1986). Thus in order to test the effectiveness of a candidate bisintercalator the viscosity of a DNA solution is measured according to assays well known to those of skill in the art (Suh and Chaires, 1995) and compared to the viscosity of a known intercalator such as daunorubicin. If the candidate substance is higher than that of the control monointercalator then the candidate substance is likely to be an effective bisintercalator.
Viscosity Studies. Relative viscosity studies were conducted exactly as described previously (Suh and Chaires, 1995). Data were cast into a plot of (.eta./.eta.0)^1/3 versus ratio of bound drug per DNA base pair, in accord with the theory of Cohen and Eisenberg (1969). Ethidium bromide and daunorubicin were run as controls for these experiments.
WP631 Bisintercalates into DNA. In the absence of high-resolution structural data, hydrodynamic studies, especially viscosity, provide the most reliable means of inferring the binding mode of agents that interact with DNA (Suh and Chaires, 1995). […] The theory of Cohen and Eisenberg (1969) predicts that, for monointercalation,plots of the cubed root of the relative viscosity ((.eta./.eta.0)^1/3) versus the binding ratio (bound drug/DNA bp) ought to have a slope of 1.0.
For bisintercalators, the slope is expected to be twice that observed for monointercalators, an expectation that has been verified for a variety of bisintercalating compounds (Wakelin, 1986). […] The model was constructed using Hyper-Chem software (v. 4.5, Hypercube, Inc.) by using the coordinates of the high-resolution structure reported by Wang et al. (1987) for a 2:1 daunorubicin-DNA complex. The sequence of the hexanucleotide in that study was d(G.CTAG.C)3, where the two equivalent intercalation sites are indicated.

[2] = system: herring sperm DNA; assay: UV melting studies of DNA with drug; binding constant from Tm shift; details: for Kd: BPE buffer
[3] = system: herring sperm DNA; format: binding
[4] = system: MCF-7 cells; assay: MTT cytotoxicity assay, sensitive MCF-7 cells; format: cell-based, human; details: for IC50: Homo sapiens, MCF7, MTT, 72 h, read-out: ID50 MCF-7
[5] = system: MCF-7/VP-16 cells; details: for RI (resistance index) MCF-7/VP16 / MCF-7: human, mcf-7/vp-16 / mcf-7 cells, 4320 min
[6] = system: MCF-7/VP-16 cells; assay: cells; details: Homo sapiens, MCF7, 72 h, read-out: ID50 MCF-7/VP16
[7] = system: KB-V-1 cells
[8] = system: KB-V-1 cells; assay: cells; details: Homo sapiens, KB-V1, read-out: ID50 KB-V-1
[9] = system: DNA; details: literature; cited from earlier work
[10] = Young et al., 1985; cited from earlier work
[11] = system: KB-3-1 cells; assay: MTT cytotoxicity assay, sensitive KB-3-1 cells; details: Homo sapiens, KB 3-1, read-out: ID50 KB-3-1
[12] = molecular target: herring sperm DNA; details: cited from earlier work
[13] = system: topoisomerase II; details: Hsiang et al., 1989; cited from earlier work

Compound	slope of cubed root of the relative viscosity vs bound drug per DNA base pair [1]	potency in MCF-7 cells compared with DOX, in words [4]	IC50 [4] [µM]	RI (resistance index) MCF-7/VP16 / MCF-7 [5]	IC50 [6] [µM]	binding mode from viscosity [1]	cytotoxicity in MDR KB-V1 cells, in words [7]	IC50 [8] [µM]	preferred DNA binding sites [9]	IC50 [11] [µM]	also measured
COc1cccc2c1C(=O)c1c(O)c3c(c(O)c1C2=O)C[C@@](O)(C(C)=O)C[C@@H]3O[C@H]1C[C@H](NCc2ccc(CN[C@H]3C[C@H](O[C@H]4C[C@](O)(C(C)=O)Cc5c(O)c6c(c(O)c54)C(=O)c4c(OC)cccc4C6=O)O[C@@H](C)[C@H]3O)cc2)[C@H](O)[C@H](C)O1 [WP631, α,α'-Bis-[3'-N-(daunorubicin)]-p-xylene hydrochloride]	1.58±0.08	less potent than DOX	4.83 ± 2.5	0.5	2.5 ± 3.4	–	–	–	–	–	binding mode from viscosity ([1]; hydrochloride): binds to DNA by bisintercalation; also recorded: nearly double that observed for daunorubicin; Tm of herring sperm DNA in presence of drug ([2]; 10 μM WP631, BPE buffer (16 mM total Na+), DNA alone 67.2° C.): 93.5 °C; Kd ([2]; at 20° C., ΔHb assumed constant with temperature, read-out: binding constant at 20° C. (van't Hoff) (converted)): 0.0037 nM; Kd ([2]; at 93.5° C., assuming n=6 bp, read-out: binding constant K at Tm (converted)): 114 nM; expected binding constant (square of monomer constant) ([2]; expected for bisintercalator, not measured): 10^14 M^-1; DNA affinity compared with polyamides, in words ([2]; vs pyrrole-imidazole polyamides (Trauger, 1996)): surpasses that of the polyamides; binding entropy ΔS [3]: -51 cal mol^-1 K^-1; binding free energy ΔG^0 [3]: -15.3 kcal/mol; entropic contribution TΔS [3]: -14.9 kcal/mol; enthalpy of melting of DNA-WP631 complex ΔH2 ([3]; DSC, BPE buffer, saturating amounts of WP631): 11.4 ± 1.0 kcal/mol; binding enthalpy ΔHb ([3]; hydrochloride): -30.2 ± 2.6 kcal/mol and -30.2 kcal/mol; cytotoxicity in MCF-7/VP-16 cells compared with DOX, in words [5]: dramatic increase in cytotoxicity
CC[n+]1c(-c2ccccc2)c2cc(N)ccc2c2ccc(N)cc21 [ethidium bromide, Ethidium bromide]	0.84±0.02	–	–	–	–	viscosity changes in excellent agreement with the theory	–	–	–	–	–
COc1cccc2c1C(=O)c1c(O)c3c(c(O)c1C2=O)C[C@@](O)(C(=O)CO)C[C@@H]3O[C@H]1C[C@H](N)[C@H](O)[C@H](C)O1 [DOX, doxorubicin]	–	–	0.9 ± 0.47	17	14.9 ± 0.89	–	inactive	299	binds preferentially to CGA or CGT	3.7 ± 1.3	RI (resistance index) KB-V-1 / KB-3-1 ([7]; human, kb-v-1 / kb-3-1 cells): 80.8; DOX resistance index relative to that of WP631 [5]: 34 fold; adverse systemic effects [10]: acute myelosuppression, cumulative cardiotoxicity, and gastrointestinal toxicity
COc1cccc2c1C(=O)c1c(O)c3c(c(O)c1C2=O)C[C@@](O)(C(C)=O)C[C@@H]3O[C@H]1C[C@H](O)[C@H](NCc2ccc(CN[C@@H]3[C@H](C)O[C@@H](O[C@H]4C[C@](O)(C(C)=O)Cc5c(O)c6c(c(O)c54)C(=O)c4c(OC)cccc4C6=O)C[C@@H]3O)cc2)[C@H](C)O1 [WP652, α,α'-Bis-4'-N-(4'-amino-3'-deamino-4'-deoxy-3'-hydroxydaunorubicin)-p-xylene hydrochloride]	–	less potent than DOX	3.9 ± 3.3	–	–	–	unusually active against the MDR cells	7.1 ± 1.2	–	4.8 ± 0.5	–
COc1cccc2c1C(=O)c1c(O)c3c(c(O)c1C2=O)C[C@@](O)(C(C)=O)C[C@@H]3O[C@H]1C[C@H](N)[C@H](O)[C@H](C)O1 [daunorubicin]	0.89±0.04	–	–	–	–	viscosity changes in excellent agreement with the theory	–	–	triplet sequences 5'-A/TCG and 5'-A/TGC are preferred binding sites	–	Kd ([12]; BPE buffer, at 20° C., read-out: binding constant of daunorubicin (converted)): 0.1 µM and 0.0625 µM; binding enthalpy ΔH ([12]; comparable ionic conditions): -10.8 kcal/mol; binding entropy ΔS ([12]; comparable ionic conditions): -3 cal mol^-1 K^-1; binding free energy ΔG^0 ([12]; comparable ionic conditions): -9.9 kcal/mol
CN(C)CCN1C(=O)c2cccc3cc(N)cc(c23)C1=O [amonafide]	–	–	–	–	–	–	–	–	–	–	inhibition of topoisomerase II [13]: inhibit topoisomerase II
